Laboratory results: ChEMBL document CHEMBL1138165, “Structure-activity studies of quinuclidinone analogs as anti-proliferative agents in lung cancer cell lines” (2006)
The source made the active and inactive calls. No cut-off for these calls is given here.

What was measured:
NCI-H1299 [1] = test: Viability of H1299 (p53 null) cells at 4 mM by MTT assay; type: functional; settings: Homo sapiens
NCI-H1299 [2] = test: Viability of H1299 (p53 null) cells in presence of 4 Gy at 4 mM by MTT assay; type: functional; settings: Homo sapiens

Compound	GI50 (NCI-H1299 [1])	GI50 (NCI-H1299 [2])	Activity (NCI-H1299 [1])
O=C1C2CCN(CC2)C12COC(c1ccccc1)OC2 (stereo not drawn)	17.3 µM	4.49 µM	–
CC1(C)OCC2(CO1)C(=O)C1CCN2CC1	19.2 µM	4.74 µM	–
CC(=O)OCC1(COC(C)=O)C(=O)C2CCN1CC2	–	–	Active
O=C1C2CCN(CC2)C1(CO)CO	–	–	Active
O=C1CN2CCC1CC2	–	–	inactive
OCC1(CO)C(O)C2CCN1CC2 (stereo not drawn)	–	–	inactive
